According to patent publication US20080279924A1, “HLA class I A2 tumor associated antigen peptides and vaccine compositions” (priority 1999, published 2008):

Legend:
PBMC from healthy donors = type: cell-based, human
HLA-DR molecules = details: cited from earlier work

QYIKANSKFIGITE [Epitope 553.01]
antigen concentration at which the 10,000 cpm proliferation level was reached (PBMC from healthy donors): about 10,000 ng/ml | donors with primary T cell responses (PBMC from healthy donors): 2 out of 3 | number of DR molecules bound of DR molecules tested (HLA-DR molecules): seven of 16

aKXVAAWTLKAAa-NH2 [PADRE]
donors with primary T cell responses (PBMC from healthy donors): all three donors
